“Also recorded” adds a separate entry of the source.

Data set [1] deals with HIV-1 93BR020 (subtype F clinical isolate). In words: Anti-HIV efficacy in human PBMCs, isolate 93BR020. The class given is cell-based. As to the method:
(§1) HIV human peripheral blood mononuclear cell (PBMC) assays were performed as described previously (Lanier et al., 2010, Antimicrob. Agents Chemother. 54:2901-09; Ptak et al., 2008, Antimicrob. Agents Chemother. 52:1302-17). Briefly, fresh PBMCs, seronegative for HIV and hepatitis B virus (HBV), were isolated from blood samples of the screened donors (Biological Specialty Corporation, Colmar, Pa.) by using lymphocyte separation medium (LSM; density, 1.078±0.002 g/ml; Cellgro; Mediatech, Inc.) by following the manufacturer's instructions. Cells were stimulated by incubation in 4 μg/mL phytohemagglutinin (PHA; Sigma) for 48 to 72 h. Mitogenic stimulation was maintained by the addition of 20 U/mL recombinant human interleukin-2 (rhIL-2; R&D Systems, Inc.) to the culture medium. PHA-stimulated PBMCs from at least two donors were pooled, diluted in fresh medium, and added to 96-well plates at 5×10^4 cells/well. Cells were infected (final multiplicity of infection [MOI] of ≅0.1) in the presence of 9 different concentrations of test compounds (triplicate wells/concentration) and incubated for 7 days. […] Following removal of supernatant samples, compound cytotoxicity was measured by the addition of 3-(4,5-dimethylthiazol-2-yl)-5-(3-carboxymethoxyphenyl)-2-(4-sulfophenyl)-2H-tetrazolium (MTS; CellTiter 96 reagent; Promega) by following the manufacturer's instructions. […]

A further data set addresses HIV-1NL4-3 CA (Human immunodeficiency virus type 1 group M subtype B, UniProt P12493). In words: Isothermal titration calorimetry. The class given is binding. How it is done:
Isothermal titration calorimetric experiments were performed at 10, 15, and 25° C. using a high-precision ITC200 titration calorimetric system from MicroCal LLC (Northampton, Mass.). All titrations were performed by adding CMPD-E in steps of […]. All solutions contained within the calorimetric cell and injector syringe were prepared in the same buffer, 25 mM Tris-HCl, pH 7.5 with 150 mM NaCl and 3% DMSO. The concentrations of CA and CMPD-E were 35 and 600 μM, respectively. The heat evolved upon injection of CMPD-E was obtained from the integral of the calorimetric signal. The heat associated with the binding reaction was obtained by subtracting the heat of dilution from the heat of reaction. The individual heats were plotted against the molar ratio, and the values for the number of binding sites (n), the enthalpy change (ΔH) and dissociation constant (KD=1/KA) were obtained by nonlinear regression of the data.
For orientation: Isothermal titration calorimetry measures the heat released or taken up as one component is titrated into another.

The test system of data set [2] is HIV-1 BCF02 (group O clinical isolate). In words: Anti-HIV efficacy in human PBMCs, isolate BCF02. The class given is cell-based. As to the method:
as §1

Data set [3] has as its system HIV-1 92BR030 (subtype B clinical isolate). In words: Anti-HIV efficacy in human PBMCs, isolate 92BR030. The format is cell-based. How it is done: HIV human peripheral blood mononuclear cell (PBMC) assays were performed as described previously (Lanier et al., 2010, Antimicrob. Agents Chemother. 54:2901-09; Ptak et al., 2008, Antimicrob. Agents Chemother. 52:1302-17). Briefly, fresh PBMCs, seronegative for HIV and hepatitis B virus (HBV), were isolated from blood samples of the screened donors (Biological Specialty Corporation, Colmar, Pa.) by using lymphocyte separation medium (LSM; density, 1.078±0.002 g/ml; Cellgro; Mediatech, Inc.) by following the manufacturer's instructions. Cells were stimulated by incubation in 4 μg/mL phytohemagglutinin (PHA; Sigma) for 48 to 72 h. Mitogenic stimulation was maintained by the addition of 20 U/mL recombinant human interleukin-2 (rhIL-2; R&D Systems, Inc.) to the culture medium. PHA-stimulated PBMCs from at least two donors were pooled, diluted in fresh medium, and added to 96-well plates at 5×10^4 cells/well. Cells were infected (final multiplicity of infection [MOI] of ≅0.1) in the presence of 9 different concentrations of test compounds (triplicate wells/concentration) and incubated for 7 days. To determine the level of virus inhibition, cell-free supernatant samples were collected for analysis of reverse transcriptase activity (Buckheit Jr., et al., 1991, AIDS Res. Hum. Retroviruses 7:295-302). Following removal of supernatant samples, compound cytotoxicity was measured by the addition of 3-(4,5-dimethylthiazol-2-yl)-5-(3-carboxymethoxyphenyl)-2-(4-sulfophenyl)-2H-tetrazolium (MTS; CellTiter 96 reagent; Promega) by following the manufacturer's instructions.
79:6089-6101; Jagodzinski et al., 2000, J. Clin. Microbiol. 38:1247-49; Michael et al., 1999, J. Clin. Microbiol. 37:2557-63 and Vahey et al., 1999, J. Clin. Microbiol. 37:2533-37); HIV-1 Group M isolate 931N101 (Subtype C, CCR5-tropic) from Dr. Robert Bollinger and the UNAIDS Network for HIV Isolation and Characterization (Gao et al., 1994, AIDS Res. Hum. Retroviruses 10:1359-68); HIV-1 Group M isolate CMUO8 (Subtype E, CXCR4-tropic) from Dr. Kenrad Nelson and the UNAIDS Network for HIV Isolation and Characterization (Gao et al., 1994, AIDS Res. Hum. Retroviruses 10:1359-68); HIV-1 Group M isolate G3 (Subtype G, CCR5-tropic) from Alash'le Abimiku (Abimiku et al., 1994, Aids Res. Hum. Retrovir. 10:1581-83); HIV-1 Group 0 isolate BCF02 (CCR5-tropic) from Sentob Saragosti, Françoise Brun-Vézinet, and François Simon (Loussertajaka et al., 1995, J. Virol. 69:5640-49); and SIV isolate Mac251 from Dr. Ronald Desrosiers (Daniel et al., 1985, Science 228:1201-04).

The next data set relates to DENV (serotypes 1-4). In words: CPE assay, Dengue serotypes 1-4. The format is cell-based, Dengue virus.
The test system of a further data set is RSV. In words: CPE assay, RSV. The class given is cell-based, respiratory syncytial virus.
The target of another data set is HIV-1 CA (Human immunodeficiency virus type 1 group M subtype B, UniProt P12493). In words: In vitro CA assembly assay (turbidity). The class given is biochemical. Particulars: CA 30 μM; compound 147 μM; turbidity at 350 nm. As to the method:
The effect of compound CMPD-E on the assembly of HIV-1 CA was measured by monitoring turbidity at 350 nm using a modification of the method of Tian et al. (Tian et al., 2009, Bioorg. Med. Chem. Lett. 19:2162-67). Briefly, 1.0 μL of concentrated CMPD-E in 100% DMSO was added to a 74-μL aqueous solution (2 mL of 5 M NaCl mixed with 1 mL of 200 mM NaH2PO4, pH 8.0). To initiate the assembly reaction, 25 μL of purified CA protein (120 μM) was added. An identical reaction mixture was prepared, omitting the compound (i.e., DMSO only). Samples were allowed to equilibrate for 2 min prior to reading. Readings were taken at 350 nm every 10 s for 30 min. CA was used at a final concentration of 30 μM, and CMPD-E at a final concentration of 147 μM.

The next data set can be described thus: in vitro. The class given is cell-based. Particulars: human. As to the method:
HIV human peripheral blood mononuclear cell (PBMC) assays were performed as described previously (Lanier et al., 2010, Antimicrob. Agents Chemother. 54:2901-09; Ptak et al., 2008, Antimicrob. Agents Chemother. 52:1302-17). Briefly, fresh PBMCs, seronegative for HIV and hepatitis B virus (HBV), were isolated from blood samples of the screened donors (Biological Specialty Corporation, Colmar, Pa.) by using lymphocyte separation medium (LSM; density, 1.078±0.002 g/ml; Cellgro; Mediatech, Inc.) by following the manufacturer's instructions. Cells were stimulated by incubation in 4 μg/mL phytohemagglutinin (PHA; Sigma) for 48 to 72 h. Mitogenic stimulation was maintained by the addition of 20 U/mL recombinant human interleukin-2 (rhIL-2; R&D Systems, Inc.) to the culture medium. PHA-stimulated PBMCs from at least two donors were pooled, diluted in fresh medium, and added to 96-well plates at 5×10^4 cells/well. Cells were infected (final multiplicity of infection [MOI] of ≅0.1) in the presence of 9 different concentrations of test compounds (triplicate wells/concentration) and incubated for 7 days. […] Following removal of supernatant samples, compound cytotoxicity was measured by the addition of 3-(4,5-dimethylthiazol-2-yl)-5-(3-carboxymethoxyphenyl)-2-(4-sulfophenyl)-2H-tetrazolium (MTS; CellTiter 96 reagent; Promega) by following the manufacturer's instructions.

For the next data set, the system named is JEV. In words: CPE assay, JEV. The class given is cell-based, Japanese encephalitis virus.
The mark [4] stands for this setting: Human immunodeficiency virus 1, PBMC.

A word on the IC50: it is the concentration that gives 50% inhibition. One may read the Kd as the constant that tells how readily two partners part at equilibrium. As usually defined, the CC50 is the concentration at which the toxic effect on the cells reaches its halfway point. Read a high CC50 as lower toxicity to the cells. On to `O=C(O)c1ccc(-c2nc(-c3ccccc3)c(-c3ccccc3)[nH]2)cc1` [CMPD-E, 4-(4,5-diphenyl-1H-imidazol-2-yl)benzoic acid], for which the IC50 in data set [1] (setting [4]) was 65.6 µM; in data set [2] (setting [4]), 71.3 µM; in [3] (setting [4]), 68.7 µM; in the data set with DENV (serotypes 1-4) (Dengue virus) it was > 100 µM; in the data set on RSV (human respiratory syncytial virus, RSV, Vero cells), > 100 µM; in the data set with JEV (Japanese encephalitis virus), > 100 µM. In addition, the “Antiviral index (TC50/IC50)” value in [1] (PBMC) is given as >1.53; in [2] (PBMC), >1.4; in data set [3] (92BR030, PBMC), >1.46. This molecule gave a Kd at HIV-1NL4-3 CA of 85 µM. The “change in Gibbs energy” value at HIV-1NL4-3 CA (ITC, 25° C.) is -6.6 kcal/mol. Besides, on HIV-1NL4-3 CA (ITC, 25° C.), the “change in enthalpy (ΔH)” value was -7.3 kcal/mol. Also, on HIV-1NL4-3 CA (ITC, 25° C.), the “change in entropy (ΔS)” value is given as −5.0 cal/(K×mol). For the same molecule, the heat capacity change on HIV-1NL4-3 CA (from temperature dependence of the enthalpy) is listed as −220 cal/(K×mol). Moreover, in [3] (primary PBMCs), the “inhibition of HIV-1 92BR030 replication in PBMCs” value was “could inhibit”. In the data set on DENV (serotypes 1-4), the “anti-DENV activity” value is “no inhibitory effects; also recorded: retains none of the anti-DENV activity”. Besides, the “activity against RSV” value in the data set on RSV (CPE assay, up to 100 μM) was “no inhibitory effects”. Also, on HIV-1 CA, the “effect on assembly of HIV-1 CA in vitro” value is “prevents the assembly of the capsid; also recorded: prevented assembly of CA in vitro; also recorded: preventing the assembly of the capsid”. In addition, in “in vitro”, the CC50 at 7 days is > 100 µM. Further, the “effect on Japanese encephalitis virus replication” value in the data set on JEV is recorded as “no inhibitory effects”.

(Values after patent US20130165489A1, “Small Molecule Modulators of HIV-1 Capsid Stability and Methods Thereof” (The Trustees of the University of Pennsylvania, priority 2010, published 2013).)
